Reference: ChEMBL document CHEMBL4482313, “Method and compounds for inhibition of cell death” (2012)
pIC50: −log10 of the molar value. Active and inactive are the calls of the source. The rule behind the calls is not given here.

What was measured:
[1] = target: T1, Serine protease HTRA2, mitochondrial (Homo sapiens) (UniProt O43464)
T1 sequence (whole entry): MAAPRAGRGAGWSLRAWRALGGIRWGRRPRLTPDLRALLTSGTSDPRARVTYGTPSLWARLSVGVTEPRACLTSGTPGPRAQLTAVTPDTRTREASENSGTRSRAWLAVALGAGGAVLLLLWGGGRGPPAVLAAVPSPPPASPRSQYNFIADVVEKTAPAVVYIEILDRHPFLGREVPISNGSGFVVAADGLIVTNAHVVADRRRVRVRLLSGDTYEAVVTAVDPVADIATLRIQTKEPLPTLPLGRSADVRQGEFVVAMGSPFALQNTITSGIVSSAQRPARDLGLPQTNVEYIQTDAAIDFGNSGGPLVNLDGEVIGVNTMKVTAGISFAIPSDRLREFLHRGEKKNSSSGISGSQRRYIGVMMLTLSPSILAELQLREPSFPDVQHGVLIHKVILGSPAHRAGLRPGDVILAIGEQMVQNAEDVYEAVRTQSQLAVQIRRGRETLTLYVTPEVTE

[2] = target: T1, Serine protease HTRA2, mitochondrial (Homo sapiens); assay: Inhibition of MBP-fused Omi/HtrA2 (134 to 458 residues) (unknown origin) expressed in TB1 Escherichia coli at 20 to 100 uM pre-incubated for 15 mins before FITC-labeled dephosphorylated casein substrate addition and measured every 5 mins for 30 mins by fluorescence assay
[3] = target: T1, Serine protease HTRA2, mitochondrial (Homo sapiens); assay: Inhibition of MBP-fused Omi/HtrA2 (134 to 458 residues) (unknown origin) expressed in TB1 Escherichia coli at 20 uM pre-incubated for 15 mins before FITC-labeled dephosphorylated casein substrate addition and measured every 5 mins for 30 mins by fluorescence assay relative to control
[4] = target: T1, Serine protease HTRA2, mitochondrial (Homo sapiens); assay: Irreversible inhibition of MBP-fused Omi/HtrA2 (134 to 458 residues) (unknown origin) expressed in TB1 Escherichia coli at 20 to 100 uM pre-incubated for 40 mins to 1 hr before FITC-labeled dephosphorylated casein substrate addition and measured every 5 mins for 30 mins by fluorescence assay
[5] = target: T1, Serine protease HTRA2, mitochondrial (Homo sapiens); assay: Inhibition of MBP-fused Omi/HtrA2 (134 to 458 residues) (unknown origin) expressed in TB1 Escherichia coli at 10 uM pre-incubated for 15 mins before higher 2 times FITC-labeled dephosphorylated casein substrate addition and measured every 5 mins for 30 mins by fluorescence assay
[6] = target: T1, Serine protease HTRA2, mitochondrial (Homo sapiens); assay: Inhibition of His-tagged Omi/HtrA2 (134 to 458 residues) (unknown origin) expressed in TB1 Escherichia coli at 10 to 100 uM pre-incubated for 10 mins before un-labeled beta-casein substrate addition and measured after 30 mins by Coomassie blue staining based SDS-PAGE analysis
[7] = target: T1, Serine protease HTRA2, mitochondrial (Homo sapiens); assay: Inhibition of His-tagged Omi/HtrA2 (134 to 458 residues) (unknown origin) expressed in TB1 Escherichia coli at 80 uM pre-incubated for 10 mins before un-labeled beta-casein substrate addition and measured after 30 mins by Coomassie blue staining based SDS-PAGE analysis
[8] = target: T1, Serine protease HTRA2, mitochondrial (Homo sapiens); assay: Inhibition of His-tagged Omi/HtrA2 (134 to 458 residues) (unknown origin) expressed in TB1 Escherichia coli at 10 to 50 uM pre-incubated for 15 mins before FITC-labeled dephosphorylated casein substrate addition and measured every 5 mins for 30 mins by fluorescence assay
[9] = target: Serine protease HTRA1 (Homo sapiens) (UniProt Q92743); assay: Inhibition of His-tagged L56/HtrA1 (140 to 480 residues) (unknown origin) expressed in TB1 Escherichia coli at 10 to 50 uM pre-incubated for 15 mins before FITC-labeled dephosphorylated casein substrate addition and measured every 5 mins for 30 mins by fluorescence assay
[10] = Inhibition of canine F10a using fluorogenic substrate incubated for 20 mins by fluorescence based assay; design: species or system Canis lupus familiaris
[11] = Inhibition of bovine trypsin incubated for 20 mins by fluorescence based assay; design: species or system Bos taurus
Fibroblast [12] = type: cell-based; conditions: mouse, 36 h, 25 µM
Fibroblast [13] = type: cell-based; conditions: mouse, 36 h
[14] = Drug localization in cytoplasm of human HeLa cells at 20 to 50 uM incubated for 2 hrs by confocal laser-scanning microscopy; type: ADME, subcellular
Fibroblast [15] = type: cell-based; conditions: mouse, 36 h, 25 µM; remark: listed apart in the source
Canis lupus familiaris = species: Canis lupus familiaris; assay: Inhibition of cisplatin-induced apoptosis in dog MPT cells at 20 to 50 uM pre-incubated for 20 mins before cisplatin challenge for 6 hrs by annexin-V staining based flow cytometry; type: functional, cell-based

Sequence of Serine protease HTRA1 (Homo sapiens) (Q92743 whole entry, the tested form may be a part): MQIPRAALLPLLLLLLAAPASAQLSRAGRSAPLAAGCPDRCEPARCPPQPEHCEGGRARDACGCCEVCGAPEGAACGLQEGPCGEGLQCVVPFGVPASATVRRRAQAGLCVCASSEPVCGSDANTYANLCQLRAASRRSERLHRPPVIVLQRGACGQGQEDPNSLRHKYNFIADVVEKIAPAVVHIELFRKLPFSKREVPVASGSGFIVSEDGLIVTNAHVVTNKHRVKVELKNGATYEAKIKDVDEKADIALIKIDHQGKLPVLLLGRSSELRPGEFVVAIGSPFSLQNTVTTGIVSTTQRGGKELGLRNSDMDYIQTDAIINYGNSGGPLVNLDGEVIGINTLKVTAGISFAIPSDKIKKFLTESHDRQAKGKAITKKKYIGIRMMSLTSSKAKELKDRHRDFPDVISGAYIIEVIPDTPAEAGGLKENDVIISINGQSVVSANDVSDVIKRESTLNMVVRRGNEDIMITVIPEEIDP

| SMILES | inhibition [1] | inhibition [2] | inhibition [3] | inhibition [4] | inhibition [5] | inhibition [6] | inhibition [7] | inhibition [8] | inhibition [9] | pIC50 [10] | pIC50 [11] | Activity (Fibroblast [12]) | Activity (Fibroblast [13]) | Drug uptake [14] | Activity (Fibroblast [15]) | inhibition (Canis lupus familiaris) |
| --- | --- | --- | --- | --- | --- | --- | --- | --- | --- | --- | --- | --- | --- | --- | --- | --- |
| Cc1cccc([N+](=O)[O-])c1-c1ccc(C=C2C(=O)N(c3ccccc3)C(=S)N(c3ccccc3)C2=O)o1 | < 40% | Active | > 78% | inactive | inactive | Dose-dependent effect | 100% | inactive | Active | 3.37 to 3.44 | < 3.30 | Non-Toxic | Non-Toxic | Active | Non-Toxic | Dose-dependent effect |
| O=C(O)c1cccc(-c2ccc(C=C3C(=O)N(c4ccccc4)C(=S)N(c4ccccc4)C3=O)o2)c1 |  | Active |  | inactive |  |  |  |  |  |  |  |  |  |  |  |  |
| COc1ccc(-c2ccc(C=C3C(=O)N(c4ccccc4)C(=S)N(c4ccccc4)C3=O)o2)cc1Cl |  | Active |  | inactive |  |  |  |  |  |  |  |  |  |  |  |  |
| Cc1ccc([N+](=O)[O-])cc1-c1ccc(C=C2C(=O)N(c3ccccc3)C(=S)N(c3ccccc3)C2=O)o1 |  | Active | 58% | inactive |  |  |  |  |  |  |  |  |  |  |  |  |
